US20240091242A1, “LIPIDS THAT REDUCE LUNG DAMAGE, IMPROVE PULMONARY FUNCTION AND DECREASE PRO-INFLAMMATORY CYTOKINES” (Signpath Pharma, Inc., priority 2021, published 2024)

Tested on: pro-inflammatory cytokines in the plasma
Test: Multiplex analysis of cytokine levels in plasma, murine LPS ARDS model
Type: in vivo, mouse
Settings: for IL3 level in plasma / IL7 level in plasma / MCP-1 level in plasma / MIP-1alpha level in plasma / MIP-2 level in plasma: in pg/mL (unit assumed)
Description: C57B16/N mice were obtained from Charles River Laboratories (Montreal, Quebec). Male mice, 20-25 g of body weight, were used throughout the studies. Animals were housed in specific pathogen[…]free conditions, and all experiments were approved by Institutional Animal Care and Use Committee (IPST_SL20200402-1). Animal studies are reported in compliance with […] guidelines.
All delivered mice were kept for one week as an acclimatization period prior to performing any experiments. Animals were housed in a maximum of two mice per cage under a 12[…]h light/12[…]h dark cycle at a temperature of ˜20-22° C. and 40-60% humidity. Food and water were available ad libitum. Each cage of mice was blindly assigned for different treatments or maintained as a control group according to the experimental design. The individual who carried out the experiments was not blinded as to treatment, but data analysis and experiments were otherwise blinded to avoid any bias.
In the ARDS group, mice received Escherichia coli O111:B4 lipopolysaccharide (50 μg in 0.05 mL saline, i.t.), while, in the control group, the animals received an instillation of saline (0.05 mL, i.t.). For intratracheal instillation, mice were slightly anesthetized with isoflurane.
The lipid SPPCT-800 was dissolved in water (low dose—2 mg/ml; high dose—20 mg/ml). For the 24-hour study, two treatment approaches were used. Mice received a single dose of SPPCT-800 (200 mg/kg, per gavage) as prevention (30 minutes before the LPS instillation), or as a single dose of either 20 mg/kg or 200 mg/kg as therapy (3-hour after the LPS instillation). For the 72-hour study, mice received a total of 8 treatments of SPPCT-800 (200 mg/kg) starting at 3-hour after the LPS instillation. Disease progression in mice was assessed by the evaluation of pulmonary functions, blood oxygen saturation, and body weight change. On the terminal day of each study (24 hours or 72 hours), measurement of cytokine levels in the plasma and BALF, and histopathology evaluations were done.
Multiplex analysis of mediators. The inventors quantified 31 different mediators in the BALF and plasma by using a Discovery Assay® (Mouse Cytokine and Chemokine Array 31-Plex (MD31), Eve Technologies Corp, Calgary, AB, Canada). The multiplex assay was performed at Eve Technologies using the Bio-Plex™ 200 system (Bio-Rad Laboratories, Inc., Hercules, CA, USA) and a Milliplex Mouse Cytokine/Chemokine kit (Millipore, St. Charles, MO, USA) according to Eve Tech protocol. The 31-plex consisted of Eotaxin, G-CSF, GM-CSF, IFN-γ, IL-1α, IL-1β, IL-2, IL-3, IL-4, IL-5, IL-6, IL-7, IL-9, IL-10, IL-12 (p40), IL-12 (p70), IL-13, IL-15, IL-17, IP-10, KC, LIF, MCP-1, M-CSF, MIG, MIP-1α, MIP-1β, MIP-2,RANTES, TNFα, and VEGF. The assay sensitivities of these markers range from 0.1 pg/mL to 33.3 pg/mL. Individual analytes' values and other assay details are available on Eve Technologies' website and in the Milliplex protocol.
Statistical Analysis. Results are expressed as means±SEM. Comparisons were made on normally distributed data using ANOVA, followed by a Fisher post hoc test to assess the difference between LPS+vehicle group with GraphPad Prism Software version 8.0 (San Diego, CA, USA). Differences were considered statistically significant when P values were less than 0.05. (* Shown difference versus Sham animals and # shown difference versus LPS+Vehicle group. * Means P<0.05, ** P<0.01, *** P<0.001 while # means P<0.05, ##P<0.01 and ###P<0.001).

[1] = 24-hours, Pre: SPP4040 30 minutes before LPS
[2] = 24-hours, Thera: SPP4040 3 hours after LPS
[3] = 72-hours, Thera: eight SPP4040 injections over 72 hours after LPS

## CCCCCCCCCCCCCC(=O)OCC(COP(=O)([O-])OCC(COC(=O)CCC)OC(=O)CCC)OC(=O)CCCCCCCCCCCCC.CCCCCCCCCCCCCC(=O)OCC(COP(=O)([O-])OCC(COC(=O)CCC)OC(=O)CCC)OC(=O)CCCCCCCCCCCCC.[Mg+2] (centres unmarked) [SPPCT-800]
[1]
  Eotaxin level in plasma: 719 ± 138
  G-CSF level in plasma: 21035 ± 2241
  GM-CSF level in plasma: 12 ± 2
  IFN gamma level in plasma: 1 ± 1
  IL1-alpha level in plasma: 3196 ± 3107
  IL1-beta level in plasma: 3.8 ± 0.7
  IL2 level in plasma: 11 ± 3
  IL4 level in plasma: 0.2 ± 0.1
  IL5 level in plasma: 8 ± 2
  IL6 level in plasma: 176 ± 29
  IL9 level in plasma: 2 ± 1
  IL10 level in plasma: 57 ± 8
  IL12 (p40) level in plasma: 12 ± 1
  IL12 (p70) level in plasma: 17 ± 7
  IL13 level in plasma: 22 ± 3
  IL15 level in plasma: 63 ± 15
  IL17 level in plasma: 2.6 ± 0.3
  IP-10 level in plasma: 790 ± 206
  KC level in plasma: 1271 ± 224
  LIF level in plasma: 1.3 ± 0.2
  LIX level in plasma: 470 ± 145
  M-CSF level in plasma: 12 ± 1
  MIG level in plasma: 2486 ± 203
  MIP-1beta level in plasma: 109 ± 8
  RANTES level in plasma: 200 ± 28
  TNF-alpha level in plasma: 14 ± 1
  VEGF level in plasma: 0.5 ± 0.1
  IL3 level in plasma: 0.9 ± 0.1
  IL7 level in plasma: 8 ± 2
  MCP-1 level in plasma: 86 ± 20
  MIP-1alpha level in plasma: 88 ± 4
  MIP-2 level in plasma: 138 ± 7
[2]
  Eotaxin level in plasma: 855 ± 228
  G-CSF level in plasma: 22915 ± 410
  GM-CSF level in plasma: 11 ± 1
  IFN gamma level in plasma: 1 ± 1
  IL1-alpha level in plasma: 159 ± 39
  IL1-beta level in plasma: 3.6 ± 0.6
  IL2 level in plasma: 16 ± 1
  IL4 level in plasma: 0.4 ± 0.2
  IL5 level in plasma: 11 ± 2
  IL6 level in plasma: 155 ± 30
  IL9 level in plasma: 6 ± 2
  IL10 level in plasma: 90 ± 32
  IL12 (p40) level in plasma: 12 ± 2
  IL12 (p70) level in plasma: 40 ± 19
  IL13 level in plasma: 22 ± 2
  IL15 level in plasma: 49 ± 16
  IL17 level in plasma: 2.3 ± 0.6
  IP-10 level in plasma: 605 ± 102
  KC level in plasma: 764 ± 274
  LIF level in plasma: 1.5 ± 0.2
  LIX level in plasma: 547 ± 203
  M-CSF level in plasma: 16 ± 4
  MIG level in plasma: 2593 ± 317
  MIP-1beta level in plasma: 120 ± 29
  RANTES level in plasma: 270 ± 70
  TNF-alpha level in plasma: 14 ± 1
  VEGF level in plasma: 0.6 ± 0.1
  IL3 level in plasma: 0.5 ± 0.7
  IL7 level in plasma: 4 ± 1
  MCP-1 level in plasma: 157 ± 62
  MIP-1alpha level in plasma: 92 ± 7
  MIP-2 level in plasma: 128 ± 5
72-hour study, P<0.05
  TNF-α levels in the plasma (in words): markedly reduced
[3]
  Eotaxin level in plasma: 464 ± 252
  G-CSF level in plasma: 1116 ± 502
  GM-CSF level in plasma: 6 ± 2
  IFN gamma level in plasma: 6 ± 2
  IL1-alpha level in plasma: 63 ± 27
  IL1-beta level in plasma: 6.8 ± 3.8
  IL2 level in plasma: 34 ± 10
  IL4 level in plasma: 0.6 ± 0.4
  IL5 level in plasma: 2 ± 1
  IL6 level in plasma: 76 ± 31
  IL9 level in plasma: 3 ± 1
  IL10 level in plasma: 5 ± 1
  IL12 (p40) level in plasma: 8 ± 1
  IL12 (p70) level in plasma: 11 ± 5
  IL13 level in plasma: 23 ± 3
  IL15 level in plasma: 40 ± 22
  IL17 level in plasma: 4 ± 3
  IP-10 level in plasma: 150 ± 34
  KC level in plasma: 502 ± 150
  LIF level in plasma: 0.5 ± 0.1
  LIX level in plasma: 574 ± 445
  M-CSF level in plasma: 5 ± 2
  MIG level in plasma: 447 ± 137
  MIP-1beta level in plasma: 55 ± 13
  RANTES level in plasma: 19 ± 2
  TNF-alpha level in plasma: 7 ± 2
  VEGF level in plasma: 7.4 ± 2.4
  IL3 level in plasma: 0.1 ± 0.1
  IL7 level in plasma: 3 ± 1
  MCP-1 level in plasma: 34 ± 6
  MIP-1alpha level in plasma: 133 ± 11
  MIP-2 level in plasma: 56 ± 17
At 24 hours
  IL-1β, IL-2, IL-3, IL-4, IL-5, IL-6, IL-7, IL-9, IL-10, IL-12 (p40), IL-12 (p70), IL-13, IL-15 and IL-17 in plasma (in words): markedly reduced
At 24 hours and at 72 hours
  MCP-1 in the plasma (in words): inhibited
  MIP-1α and MIP 1-β in the plasma (in words): Suppressive effects
At 24 hours, 200 mg/kg preventive, 20 mg/kg therapeutic and 200 mg/kg therapeutic, P<0.001
  GM-CSF in the plasma (in words): highly significant depressions
At 24 hours, all three single dose groups, P<0.001
  TNF-α in the plasma (in words): markedly reduced
At 24 hours, all three single-dose groups, P<0.01
  IFN-γ levels in the plasma (in words): profoundly depressed
At 24 hours, any of the mouse groups
  levels of plasma IL-1α (in words): did not reduce
At 72 hours
  IFN-γ levels in the plasma (in words): Large reductions
At 72 hours, P<0.01
  GM-CSF in the plasma (in words): significant decreases
At both 24 hours and 72 hours
  RANTES in the plasma (in words): suppressed
Marked suppression in the plasma or the BALF, but not in both
  MIG, IP10 and Eotaxin (in words): mixed
mouse, in vivo
  G-CSF, VEGF, KC, LIF, LIX and M-CSF in the plasma (in words): suppressed
Plasma and BALF
  number of the 15 interleukins tested in which major reductions were consistently noted: 14
